Data taken from paper PMC9888480, “Carboranyl-1,8-naphthalimide intercalators induce lysosomal membrane permeabilization and ferroptosis in cancer cell lines” (Journal of Enzyme Inhibition and Medicinal Chemistry, 2023).

Legend:
HepG2 cells = test: Ca2+ homeostasis determination (Rhod-2 AM); type: cell-based, human; conditions: HepG2, 24 h, total IC50 concentration
Experimental: Ca^2+ released was determined by the selective dye Calcium Rhod-2 AM (Thermo Fisher Scientific), which binds specifically to Ca^2+ ions that are related to an increase in dihydrorhod-2 AM concentration, and thus, an enhancement in fluorescence intensity occurred. After treatment, the cells were detached with trypsin (Corning®), washed with 1 ml of DPBS (Capricorn), and then resuspended in EMEM with 2.5 µM Rhod-2 AM. All the samples were incubated for 15 min at 37 °C in the dark, and fluorescence intensity was then analysed at an excitation/emission wavelength of 552/581 nm. The cells were analysed after incubation with the dye with excitation at 488 nm using a FACSCalibur flow cytometer (Becton Dickinson), and the data were analysed using the FlowJo software (Becton Dickinson).

ct-DNA = test: Circular dichroism (CD) measurements of ct-DNA; type: binding, calf; conditions: increasing concentration of conjugate, r = 0.1–0.5, cacodylate buffer pH 7.0
Experimental: The measurements were performed by adding aliquots of DMSO stock solution of the tested compounds to the buffer solution (pH 7.0, 20 mM, cacodylate buffer, DMSO content of the final solutions = 0.22–1.30%). Changes in the CD spectrum of ct-DNA upon the addition of compound were measured at different molar ratios r = [compound]/[ct-DNA]. CD spectra were recorded on a JASCO J-815 CD spectrometer with a JASCO PFD-425S Peltier thermostated cell holder (JASCO, Tokyo, Japan) by using a square quartz cuvette of path length 0.5 cm (0.5 ml) in the 230–400 nm region. The CD profiles reported were an average of three successive scans with a scan time of 200 nm per minute and an appropriately corrected baseline. Temperature was maintained at 20 °C during the experiment.

HepG2 = test: In vitro cytotoxic activity, MTT assay; type: cell-based, human; conditions: concentration required to inhibit cell growth by 50%
Source text: (§1) The in vitro cytotoxic activity of the obtained carborane-1,8-naphthalimide conjugates was investigated by examining their cytotoxic effects using the MTT (3–(4,5-dimethylthiazol-2-yl)-2,5-diphenyltetrazolium bromide) dye assay[38]^,[39] against the human cancer cell line HepG2 established from hepatocellular carcinoma (for compounds 12–19 and 30–37) and against human lung fibroblasts (MRC-5) (for compounds 34–37). The IC50 values—the drug concentration (µM) required to inhibit cell growth by 50%—determined for the synthesised compounds are summarised in Table 2.
(§2) The cytotoxic properties of the synthesised compounds were evaluated using the human hepatocellular carcinoma cell line (HepG2) and human lung fibroblasts (MRC-5). The HepG2 and MRC-5 cell lines were purchased from American Type Culture Collection (ATCC, Manassas, VA, USA). The HepG2 cells were propagated in Eagle’s minimal essential medium (EMEM, ATCC, Manassas, VA, USA), supplemented with 10% inactivated foetal bovine serum (FBS, Life Technologies, Warsaw, Poland) and 100 units/ml penicillin G with […] streptomycin (Life Technologies, Warsaw, Poland). The cells were incubated at 37 °C in a humidified atmosphere containing 5% CO2. Upon reaching 80–90% confluency, the cells were harvested with 0.25% trypsin in 1 mM EDTA (Life Technologies, Warsaw, Poland) and transferred to 96-well microplates at 2 × 10^4 cells/well. After overnight incubation of cells at 37 °C in a humidified atmosphere containing 5% CO2, the culture medium was removed and replaced with a freshly prepared solution of compounds in the culture medium or medium itself as the control group. The stock solutions of each compound were prepared in DMSO at a concentration of 100 mM and were diluted with the growth medium supplemented with 10% FBS to ensure drug dissolution to obtain concentrations ranging from 0.1 to 1000 µM. Cytotoxicity was evaluated using the MTT assay. After incubation with the compounds, the cells were treated with MTT dye solution (5 mg/ml) for 2 h and lysed with a solvent solution containing DMF (45 ml), sodium dodecylsulfate (13.5 g), and distilled water (55 ml). After overnight incubation at 37 °C, optical density at 550 nm, with a reference wavelength of 670 nm, was measured in an ELISA reader (VarioskanLux, Thermo Scientific, Waltham, MA, USA). All determinations were carried out in triplicate. Results were calculated as the percentage of control group viability. The IC50 values of the compounds were calculated in an Excel add-in ED50V10.

MRC-5 = test: In vitro cytotoxic activity, MTT assay; type: cell-based, human; conditions: concentration required to inhibit cell growth by 50%
Source text: as §1, §2

## 4-[(6-[(1,2-Dicarba-closo-dodecaborane-1-yl)ethylamino]hexyl)amino]-3-nitro-N-[2-(N-pyrrolidinyl)ethyl]-1,8-naphthalimide [Compound 36]
HepG2 cells
  Ca2+ accumulation compared to control: slightest effect
ct-DNA
  change in the CD spectra of ct-DNA: disturbed
HepG2
  IC50: 3630 ± 300 nM
MRC-5
  IC50: 2330 ± 20 nM

## 4-[(6-[(1,2-Dicarba-closo-dodecaborane-1-yl)ethylamino]hexyl)amino]-N-[2-(dimethylamino)ethyl]-3-nitro-1,8-naphthalimide [Compound 34]
ct-DNA
  change in the CD spectra of ct-DNA: remarkably disturbed
HepG2
  IC50: 4780 ± 790 nM
MRC-5
  IC50: 2130 ± 230 nM

## 4-[(6-[(1,7-Dicarba-closo-dodecaborane-1-yl)ethylamino]hexyl)amino]-3-nitro-N-[2-(N-pyrrolidinyl)ethyl]-1,8-naphthalimide [Compound 37]
ct-DNA
  change in the CD spectra of ct-DNA: remarkably disturbed
HepG2
  IC50: 4230 ± 820 nM
MRC-5
  IC50: 2260 ± 50 nM

## 4-[(6-[(1,7-Dicarba-closo-dodecaborane-1-yl)ethylamino]hexyl)amino]-N-[2-(dimethylamino)ethyl]-3-nitro-1,8-naphthalimide [Compound 35]
HepG2 cells
  Ca2+ accumulation compared to control: more than threefold
ct-DNA
  change in the CD spectra of ct-DNA: remarkably disturbed
HepG2
  IC50: 4320 ± 710 nM
MRC-5
  IC50: 2140 ± 360 nM
